What is called Kd is the equilibrium constant for the complex coming apart. A low value points to higher affinity. A word on the IC50: it is the concentration that gives 50% inhibition.

Assay [1] addresses T1, P300 (Homo sapiens, UniProt Q09472).
T1 sequence (Q09472 1049-1156 limits assumed): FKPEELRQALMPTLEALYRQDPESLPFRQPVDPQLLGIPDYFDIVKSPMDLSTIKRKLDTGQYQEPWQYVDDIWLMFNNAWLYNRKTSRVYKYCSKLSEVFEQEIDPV
As to the kind of experiment: BROMOscan competitive ligand binding assay, P300.

For assay [2], the target named is CBP (Homo sapiens, UniProt Q92793). As to the kind of experiment: BROMOscan competitive ligand binding assay, CBP.
Assay [3] concerns the target T2, full-length recombinant human BRD4 (Homo sapiens, UniProt O60885).
T2 construct: His-tag (N); purchased Reaction Biology RD-21-153; host or cells: Sf9 insect cells
Briefly: AlphaScreen assay, full-length BRD4 with acetylated histone H4 peptide. The settings on record: full-length BRD4, acetylated H4 peptide (1-21) ligand. The class given is binding. The method, then:
AlphaScreen® assay, an […], was conducted by following manufacturer's protocol (PerkinElmer, Waltham, MA) at Reaction Biology (Malvern, PA) utilizing full-length recombinant human BRD4 corresponding to amino acid position 2-1362 (NCBI Reference Sequence: NM_058243) expressed in Sf9 insect cells with an N-terminal His-tag (Reaction Biology Catalog No. RD-21-153), and histone H4 peptide (1-21) containing acetylated lysine residues at positions 5, 8, 12 and 16 as the ligand. […] H4 ligand peptide was then added and the mixture was incubated for another 30 minutes at room temperature. Streptavidin-coated donor beads and Ni acceptor beads were then added, and the mixture was incubated for additional 60 minutes. Fluorescent measurements (Ex/Em=680/520-620 nm) were taken and the data were fitted to the Hill equation with variable slopes to obtain IC50 values.

Assay [4] addresses BRD4 (BD1, 2) (Homo sapiens, UniProt O60885). As to the kind of experiment: BROMOscan competitive ligand binding assay, BRD4 (BD1, 2).
Assay [5] concerns acute myeloid leukemia cell line Kasumi-1. As to the kind of experiment: Kasumi-1 cell viability assay (CellTiter-Blue). The class given is cell-based. The settings on record: Homo sapiens, read-out: Kasumi-1 IC50. The method, then: Cell viability assay: Cell viability assay was conducted to obtain G150, the compound concentration resulting in 50% growth inhibition, using an acute myeloid leukemia cell line Kasumi-1 (ATCC® CRL-2724™) (ATCC, Manassas, VA). Briefly, cells were seeded on a 96-well flat-bottom cell culture plate at the density of 30,000 cells per well (MV-4-11) or 10,000 cells per well (Kasumi-1) in RPMI supplemented with 10% fetal bovine serum and L-glutamine plus penicillin and streptomycin. Cells were maintained at 37° C. with 5% CO2 for 24 hours then exposed to a given compound at either 11 or 21 concentrations ranging from 0 μM to 20 μM in a 150 μL volume in the presence of 0.2% dimethyl sulfoxide, the solvent used in serial dilution of the compound. The exposure was maintained for approximately 72 hours and the cell viability was measured using CellTiter-Blue® (Promega, Madison, WI) according to manufacturer's instruction. GI50 values were calculated using a four-parameter dose-response model in Graph Pad Prism (La Jolla, CA).
A general note: The colour change of resazurin is a common sign of viable cells or microbes.

Assay [6] has as its system MV4-11 cells. Briefly: MV4-11 cytotoxicity assay (CellTiter-Glo). The format is cell-based. The settings on record: Homo sapiens, 72 hr incubation. The method, then:
Cell lines: The MV4-11 cell line were obtained from American Type Culture Collection (ATCC, Manassas, VA, USA) and cultured in RPMI 1640 (Invitrogen 11879020) culture medium supplemented with 10% fetal bovine serum and 100 units/mL Penicillin, 100 μg/mL Streptomycin and maintained in a 37° C., 5% CO2/95% humidified air incubator.
Cytotoxicity Assay: MV4-11 cells were cultured as described above, and plated in 1536-well white solid tissue culture plates using a Multidrop Combi peristaltic dispenser (ThermoFisher, Waltham, MA) at a density of 500 cells/well in 5 μL of RPMI 1640 (Invitrogen 11879020) culture medium supplemented with 10% fetal bovine serum and 100 units/mL Penicillin, 100 μg/mL Streptomycin. A 1536-well pintool dispenser outfitted with 20 nL pins (Wako Automation, San Diego, CA) was used to transfer 23 nL of compound in DMSO to the 1536-well assay plates. After 72 hr incubation at 37° C., 2.5 μL of CellTiter-Glo (Promega) was dispensed into each well using a BioRAPTR FRD dispenser (Beckman Coulter, Brea, CA). Plates were incubated at room temperature for 10 minutes, transferred to a ViewLux microplate imager (Perkin Elmer, Waltham, MA) and the ATP-coupled luminescence was measured using a 1 second exposure.

Assay [7] concerns the target BRD4 (BD2) (Homo sapiens, UniProt O60885). As to the kind of experiment: BROMOscan competitive ligand binding assay, BRD4 (BD2).
The target in assay [8] is BRD2 (BD2) (Homo sapiens, UniProt P25440). As to the kind of experiment: BROMOscan competitive ligand binding assay, BRD2 (BD2).
The target in assay [9] is BRD2 (BD1, 2) (Homo sapiens, UniProt P25440). Briefly: BROMOscan competitive ligand binding assay, BRD2 (BD1, 2).
Assay [10] deals with BRD3 (BD1, 2) (Homo sapiens, UniProt Q15059). Briefly: BROMOscan competitive ligand binding assay, BRD3 (BD1, 2).
Assay [11] has as its target BRDT (BD1, 2) (Homo sapiens, UniProt Q58F21). Briefly: BROMOscan competitive ligand binding assay, BRDT (BD1, 2).
For assay [12], the target named is BRDT (BD2) (Homo sapiens, UniProt Q58F21). As to the kind of experiment: BROMOscan competitive ligand binding assay, BRDT (BD2).
Assay [13] deals with BRD3 (BD2) (Homo sapiens, UniProt Q15059). As to the kind of experiment: BROMOscan competitive ligand binding assay, BRD3 (BD2).
The target of assay [14] is BRD2 (BD1) (Homo sapiens, UniProt P25440). Briefly: BROMOscan competitive ligand binding assay, BRD2 (BD1).
Assay [15] concerns the target BRD3 (BD1) (Homo sapiens, UniProt Q15059). As to the kind of experiment: BROMOscan competitive ligand binding assay, BRD3 (BD1).
Assay [16] has as its target BRDT (BD1) (Homo sapiens, UniProt Q58F21). Briefly: BROMOscan competitive ligand binding assay, BRDT (BD1).
The target of assay [17] is BRD4 (BD1) (Homo sapiens, UniProt O60885). As to the kind of experiment: BROMOscan competitive ligand binding assay, BRD4 (BD1).
Setting [18] is: Kasumi 1, approximately 72 hours exposure, CellTiter-Blue.

Where two headings read alike, the source gives them in different places.

Sequence of CBP (Q92793 1085-1192 limits assumed): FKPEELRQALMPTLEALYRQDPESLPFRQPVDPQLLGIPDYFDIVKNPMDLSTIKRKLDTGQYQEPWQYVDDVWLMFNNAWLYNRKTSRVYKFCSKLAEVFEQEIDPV
Sequence of BRD2 (BD2) (P25440 344-453 limits assumed): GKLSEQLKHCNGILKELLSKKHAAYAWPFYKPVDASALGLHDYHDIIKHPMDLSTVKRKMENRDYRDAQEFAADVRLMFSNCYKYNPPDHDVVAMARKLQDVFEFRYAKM
Sequence of BRD2 (BD1) (P25440 74-180 limits assumed): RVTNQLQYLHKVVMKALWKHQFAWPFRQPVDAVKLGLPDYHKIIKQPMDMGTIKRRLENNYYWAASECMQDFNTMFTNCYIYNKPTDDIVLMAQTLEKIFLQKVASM
Sequence of BRD3 (BD1) (Q15059 34-140 limits assumed): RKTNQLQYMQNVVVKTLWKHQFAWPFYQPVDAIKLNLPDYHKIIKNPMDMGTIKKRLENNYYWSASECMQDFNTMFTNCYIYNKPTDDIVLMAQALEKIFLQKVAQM
Sequence of BRD3 (BD1, 2) (Q15059 24-416 limits assumed): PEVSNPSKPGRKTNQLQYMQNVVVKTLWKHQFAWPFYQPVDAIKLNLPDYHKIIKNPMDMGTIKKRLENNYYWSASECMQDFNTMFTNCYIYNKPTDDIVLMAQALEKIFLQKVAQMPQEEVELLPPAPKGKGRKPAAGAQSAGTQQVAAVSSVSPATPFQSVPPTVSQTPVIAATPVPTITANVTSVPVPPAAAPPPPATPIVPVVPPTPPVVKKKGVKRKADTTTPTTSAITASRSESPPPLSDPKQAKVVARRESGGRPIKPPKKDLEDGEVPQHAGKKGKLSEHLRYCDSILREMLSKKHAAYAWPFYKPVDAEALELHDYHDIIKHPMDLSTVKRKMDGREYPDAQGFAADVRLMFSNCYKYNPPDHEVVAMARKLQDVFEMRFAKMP
Sequence of BRD3 (BD2) (Q15059 306-415 limits assumed): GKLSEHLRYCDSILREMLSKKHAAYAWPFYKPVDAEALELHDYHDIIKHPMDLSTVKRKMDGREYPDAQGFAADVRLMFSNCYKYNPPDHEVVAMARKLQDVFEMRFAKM
Sequence of BRD2 (BD1, 2) (P25440 71-455 limits assumed): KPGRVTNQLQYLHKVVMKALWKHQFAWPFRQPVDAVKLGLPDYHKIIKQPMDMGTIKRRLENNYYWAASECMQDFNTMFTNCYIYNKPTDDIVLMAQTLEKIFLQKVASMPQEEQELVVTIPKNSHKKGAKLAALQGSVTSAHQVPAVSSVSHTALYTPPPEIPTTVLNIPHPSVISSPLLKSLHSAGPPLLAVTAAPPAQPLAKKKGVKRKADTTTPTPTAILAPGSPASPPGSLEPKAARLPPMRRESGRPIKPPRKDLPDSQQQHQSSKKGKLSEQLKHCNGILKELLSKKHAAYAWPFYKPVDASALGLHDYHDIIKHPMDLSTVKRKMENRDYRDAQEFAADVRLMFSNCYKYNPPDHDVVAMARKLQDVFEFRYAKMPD

`Cn1cc(-c2ccc3nc(N4CCO[C@H](CO)C4)nc(N4CCOC[C@@H]4c4ccc(F)cc4)c3c2)c2cc[nH]c2c1=O` [Cpd. 15, 4-(4-((S)-3-(4-fluorophenyl)morpholino)-2-((S)-2-(hydroxymethyl)morpholino)quinazolin-6-yl)-6-methyl-1,6-dihydro-7H-pyrrolo[2,3-c]pyridin-7-one]: the Kd in [1] and in assay [2] was less than 100 nM in each case.
As for `Cc1cc(-c2ccc3nc(-c4cnn(CC(C)(C)O)c4)nc(N4CCOC[C@@H]4c4ccc(F)cc4)c3c2)cn(C)c1=O` [Cpd. 6, (S)-5-(4-(3-(4-fluorophenyl)morpholino)-2-(1-(2-hydroxy-2-methylpropyl)-1H-pyrazol-4-yl)quinazolin-6-yl)-1,3-dimethylpyridin-2(1H)-one], the results for the IC50 in [3], in assay [5] (setting [18]) and in assay [6] were less than 100 nM, less than 100 nM and 100 to 500 nM, respectively. Also, the Kd in assay [4] (tandem bromodomains), in [1] and in assay [2] was less than 100 nM in each case.
Take `Cn1cc(-c2ccc3nc(-c4cnn(CC(C)(C)O)c4)nc(N4CCOC[C@@H]4c4ccc(F)cc4)c3c2)c2cc[nH]c2c1=O` [Cpd. 5, (S)-4-(4-(3-(4-fluorophenyl)morpholino)-2-(1-(2-hydroxy-2-methylpropyl)-1H-pyrazol-4-yl)quinazolin-6-yl)-6-methyl-1,6-dihydro-7H-pyrrolo[2,3-c]pyridin-7-one]: the IC50 in assay [3] is less than 100 nM; in assay [5] (setting [18]), less than 100 nM; in [6] it was 100 to 500 nM. Also, the Kd in assay [4] (tandem bromodomains), in assay [1] and in [2] was less than 100 nM throughout.
Take `Cc1cc(-c2ccc3nc(-c4cnn(CC(C)(C)O)c4)nc(N4CCOC[C@@H]4C4CC4)c3c2)cn(C)c1=O` [Cpd. 3, (S)-5-(4-(3-cyclopropylmorpholino)-2-(1-(2-hydroxy-2-methylpropyl)-1H-pyrazol-4-yl)quinazolin-6-yl)-1,3-dimethylpyridin-2(1H)-one]: the IC50 lay within 100 to 500 nM in [3] and 500 to 5000 nM in assay [6]. The values for the dissociation constant (Kd) in assay [4] (tandem bromodomains), in [1] and in assay [2] were less than 100 nM, 100 to 500 nM and 100 to 500 nM, respectively.
With `Cc1cc(-c2ccc3nc(N4CCO[C@H](CO)C4)nc(N4CCOC[C@@H]4c4ccccc4)c3c2)cn(C)c1=O` [Cpd. 11, 5-(2-((S)-2-(hydroxymethyl)morpholino)-4-((S)-3-phenylmorpholino)quinazolin-6-yl)-1,3-dimethylpyridin-2(1H)-one], the Kd in [1] and in assay [2] was less than 100 nM throughout.
On to `Cc1cc(-c2ccc3nc(-c4cnn(CC(C)(C)O)c4)nc(N4CCOC[C@@H]4c4ccccc4)c3c2)cn(C)c1=O` [Cpd. 1, (S)-5-(2-(1-(2-hydroxy-2-methylpropyl)-1H-pyrazol-4-yl)-4-(3-phenylmorpholino)quinazolin-6-yl)-1,3-dimethylpyridin-2(1H)-one], for which the Kd in assay [7], in [8], in assay [4] (Table 3), in assay [4] (tandem bromodomains), in assay [9] and in assay [10] was less than 100 nM throughout. In addition, the Kd in assay [11], in assay [12], in assay [1], in assay [13], in [2] and in [14] was less than 100 nM throughout. Further, the Kd in assay [15], in assay [16] and in assay [17] was less than 100 nM throughout. Also, the IC50 in assay [3] was less than 100 nM; in assay [5] (Kasumi 1, 72 h), less than 100 nM; in assay [6], 100 to 500 nM.
On to `Cn1cc(-c2ccc3nc(-c4cnn(CC(C)(C)O)c4)nc(N4CCOC[C@@H]4C4CC4)c3c2)c2cc[nH]c2c1=O` [Cpd. 4, (S)-4-(4-(3-cyclopropylmorpholino)-2-(1-(2-hydroxy-2-methylpropyl)-1H-pyrazol-4-yl)quinazolin-6-yl)-6-methyl-1,6-dihydro-7H-pyrrolo[2,3-c]pyridin-7-one], for which the IC50 in assay [3] and in [6] was less than 100 nM each time. Moreover, the Kd in assay [4] (tandem bromodomains), in assay [1] and in assay [2] was less than 100 nM each time.
`Cn1cc(-c2ccc3nc(N4CCO[C@H](CO)C4)nc(N4CCOC[C@@H]4C4CCCCC4)c3c2)c2cc[nH]c2c1=O` [Cpd. 13, 4-(4-((S)-3-cyclohexylmorpholino)-2-((S)-2-(hydroxymethyl)morpholino)quinazolin-6-yl)-6-methyl-1,6-dihydro-7H-pyrrolo[2,3-c]pyridin-7-one]: the equilibrium dissociation constant (Kd) in assay [1] and in assay [2] was less than 100 nM in each case.
On to `Cc1cc(-c2ccc3nc(-c4cnn(CC(C)(C)O)c4)nc(N4CCOC[C@@H]4C4CCCCC4)c3c2)cn(C)c1=O` [Cpd. 12, (S)-5-(4-(3-cyclohexylmorpholino)-2-(1-(2-hydroxy-2-methylpropyl)-1H-pyrazol-4-yl)quinazolin-6-yl)-1,3-dimethylpyridin-2(1H)-one], for which the dissociation constant Kd in assay [1] and in [2] was 100 to 500 nM throughout.
On to `Cn1cc(-c2ccc3nc(-c4cnn(CC(C)(C)O)c4)nc(N4CCOC[C@@H]4C4CCCCC4)c3c2)c2cc[nH]c2c1=O` [Cpd. 14, (S)-4-(4-(3-cyclohexylmorpholino)-2-(1-(2-hydroxy-2-methylpropyl)-1H-pyrazol-4-yl)quinazolin-6-yl)-6-methyl-1,6-dihydro-7H-pyrrolo[2,3-c]pyridin-7-one], for which the values for the Kd in [1] and in [2] were 100 to 500 nM and less than 100 nM, respectively.
For `Cc1cc(-c2ccc3nc(N4CCO[C@H](CO)C4)nc(N4CCOC[C@@H]4C4CCCCC4)c3c2)cn(C)c1=O` [Cpd. 10, 5-(4-((S)-3-cyclohexylmorpholino)-2-((S)-2-(hydroxymethyl)morpholino)quinazolin-6-yl)-1,3-dimethylpyridin-2(1H)-one] the same measures were 100 to 500 nM and 100 to 500 nM.
